Literature values as cited in patent US9492446B2, “Manufacturing method of solid dispersion containing itraconazole” (CTC BIO, Inc., priority 2004, dated 2016).

Columns and labels:
[1] = AIDS patients, higher pH in stomach; oral

water-solubility: less than 1 ug/ml | absorption of itraconazole relative to that of normal people [1]: no more than 50%
Structure (SMILES): CCC(C)n1ncn(-c2ccc(N3CCN(c4ccc(OCC5COC(Cn6cncn6)(c6ccc(Cl)cc6Cl)O5)cc4)CC3)cc2)c1=O (centres unmarked) [Itraconazole]
